Experimental data published in US9763942B2, “Serine/threonine kinase inhibitors” (Array BioPharma Inc., priority 2013, dated 2017).
Where two headings read alike, the source gives them in different places.

Molecular target: T1, human ERK-2 (Mitogen Activated Kinase 1) (Homo sapiens, UniProt P28482)
T1 construct: n-terminal 6-His fusion protein in E. coli and corresponding to aa 8-360; 6-His (N); made in house; host or cells: E. coli
Test: ERK-2 Enzymatic Assay
Type: biochemical
From the text: Table 1 contains representative data for Examples disclosed herein.

[1] = ERK-2 enzymatic assay, read-out: IC50

T1 sequence (P28482 8-360): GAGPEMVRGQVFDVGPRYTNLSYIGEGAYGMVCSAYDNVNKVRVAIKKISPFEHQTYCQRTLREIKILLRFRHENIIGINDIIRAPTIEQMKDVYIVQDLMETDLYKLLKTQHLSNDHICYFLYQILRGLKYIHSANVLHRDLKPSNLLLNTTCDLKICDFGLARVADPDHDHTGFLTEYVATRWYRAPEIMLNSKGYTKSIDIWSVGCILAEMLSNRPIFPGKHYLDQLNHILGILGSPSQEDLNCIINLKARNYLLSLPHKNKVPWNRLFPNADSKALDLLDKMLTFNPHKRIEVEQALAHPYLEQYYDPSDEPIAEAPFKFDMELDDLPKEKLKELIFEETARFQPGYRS

IC50 [1] | IC50 (5 nM ERK-2 enzyme, 25 μM ATP (observed Km), Omnia peptide S/T17, single assay or mean of multiple assays, read-out: Biological Example 1 IC50) | Compound
< 100 nM | – | CN1C[C@@H](n2nnc3cc(-c4ccnc(Nc5ccnn5C)n4)ccc32)[C@H](c2ccc(F)c(F)c2)C1 [Example 75, 4-(1-((3S,4R)-4-(3,4-difluorophenyl)-1-methylpyrrolidin-3-yl)-1H-benzo[d][1,2,3]triazol-5-yl)-N-(1-methyl-1H-pyrazol-5-yl)pyrimidin-2-amine]
< 100 nM | – | CN1C[C@@H](n2nnc3cc(-c4ccnc(Nc5ccnn5C)n4)ccc32)[C@H](c2cc(F)cc(F)c2)C1 [Example 76, 4-(1-((3S,4R)-4-(3,5-difluorophenyl)-1-methylpyrrolidin-3-yl)-1H-benzo[d][1,2,3]triazol-5-yl)-N-(1-methyl-1H-pyrazol-5-yl)pyrimidin-2-amine]
< 100 nM | – | CCN1C[C@@H](n2nnc3cc(-c4ccnc(Nc5ccnn5C)n4)ccc32)[C@H](c2ccc(F)c(F)c2)C1 [Example 77, 4-(1-((3S,4R)-4-(3,4-difluorophenyl)-1-ethylpyrrolidin-3-yl)-1H-benzo[d][1,2,3]triazol-5-yl)-N-(1-methyl-1H-pyrazol-5-yl)pyrimidin-2-amine]
< 100 nM | – | Cn1nccc1Nc1nccc(-c2ccc3c(c2)nnn3[C@@H]2CNC[C@H]2c2ccc(F)c(F)c2)n1 [Example 78, 4-(1-((3S,4R)-4-(3,4-difluorophenyl)pyrrolidin-3-yl)-1H-benzo[d][1,2,3]triazol-5-yl)-N-(1-methyl-1H-pyrazol-5-yl)pyrimidin-2-amine]
< 100 nM | – | Cn1nccc1Nc1nccc(-c2ccc3c(c2)nnn3[C@H]2CNCC(F)(F)C2)n1 [Example 79, (R)-4-(1-(5,5-difluoropiperidin-3-yl)-1H-benzo[d][1,2,3]triazol-5-yl)-N-(1-methyl-1H-pyrazol-5-yl)pyrimidin-2-amine]
< 100 nM | – | CC(C)N1CC(n2nnc3cc(-c4ccnc(Nc5ccnn5C)n4)ccc32)[C@H](c2cc(F)cc(F)c2)C1 (some centres unmarked) [Example 80]
– | 511 nM | COc1ncc(F)cc1N1CC[C@H](n2nnc3cc(-c4ccnc(Nc5ccnn5C)n4)ccc32)C1 [Example 81, (S)-4-(1-(1-(5-fluoro-2-methoxypyridin-3-yl)pyrrolidin-3-yl)-1H-benzo[d][1,2,3]triazol-5-yl)-N-(1-methyl-1H-pyrazol-5-yl)pyrimidin-2-amine]
< 100 nM | – | Cc1cc(-n2nnc3cc(-c4ccnc(Nc5ccnn5C)n4)ccc32)n(-c2ccccn2)n1 [Example 82, 4-(1-(3-methyl-1-(pyridin-2-yl)-1H-pyrazol-5-yl)-1H-benzo[d][1,2,3]triazol-5-yl)-N-(1-methyl-1H-pyrazol-5-yl)pyrimidin-2-amine]
< 100 nM | – | COCCN1C[C@H](c2ccc(F)cc2)[C@@H](n2nnc3cc(-c4ccnc(Nc5ccnn5C)n4)ccc32)C1 [Example 83, 4-(1-((3R,4S)-4-(4-fluorophenyl)-1-(2-methoxyethyl)pyrrolidin-3-yl)-1H-benzo[d][1,2,3]triazol-5-yl)-N-(1-methyl-1H-pyrazol-5-yl)pyrimidin-2-amine]
< 100 nM | – | COCCN1C[C@@H](n2nnc3cc(-c4ccnc(Nc5ccnn5C)n4)ccc32)[C@H](c2ccc(F)cc2)C1 [Example 87, 4-(1-((3S,4R)-4-(4-fluorophenyl)-1-(2-methoxyethyl)pyrrolidin-3-yl)-1H-benzo[d][1,2,3]triazol-5-yl)-N-(1-methyl-1H-pyrazol-5-yl)pyrimidin-2-amine]
< 100 nM | – | COc1cccc(F)c1CN1CC(n2nnc3cc(-c4ccnc(Nc5ccnn5C)n4)ccc32)C1 [Example 88, 4-(1-(1-(2-fluoro-6-methoxybenzyl)azetidin-3-yl)-1H-benzo[d][1,2,3]triazol-5-yl)-N-(1-methyl-1H-pyrazol-5-yl)pyrimidin-2-amine]

Second part, the compound before the results:

Compound | IC50 [1] | IC50 (5 nM ERK-2 enzyme, 25 μM ATP (observed Km), Omnia peptide S/T17, single assay or mean of multiple assays, read-out: Biological Example 1 IC50)
Cn1nccc1Nc1nccc(-c2ccc3c(c2)nnn3CC2(c3ccc(OC(F)(F)F)cc3)CC2)n1 [Example 47, N-(1-methyl-1H-pyrazol-5-yl)-4-(1-((1-(4-(trifluoromethoxy)phenyl)cyclopropyl)methyl)-1H-benzo[d][1,2,3]triazol-5-yl)pyrimidin-2-amine] | < 100 nM | –
Cn1nccc1Nc1nccc(-c2ccc3c(c2)nnn3CC2(C)CCC2)n1 [Example 48, N-(1-methyl-1H-pyrazol-5-yl)-4-(1-((1-methylcyclobutyl)methyl)-1H-benzo[d][1,2,3]triazol-5-yl)pyrimidin-2-amine] | < 100 nM | –
Cn1nccc1Nc1nccc(-c2ccc3c(c2)nnn3CCc2ccccc2Cl)n1 [Example 49, 4-(1-(2-chlorophenethyl)-1H-benzo-[d][1,2,3]triazol-5-yl)-N-(1-methyl-1H-pyrazol-5-yl)pyrimidin-2-amine] | < 100 nM | –
Cn1nccc1Nc1nccc(-c2ccc3c(c2)nnn3CCc2cccc(Cl)c2)n1 [Example 50, 4-(1-(3-chlorophenethyl)-1H-benzo[d][1,2,3]triazol-5-yl)-N-(1-methyl-1H-pyrazol-5-yl)pyrimidin-2-amine] | < 100 nM | –
Cn1nccc1Nc1nccc(-c2ccc3c(c2)nnn3Cc2ccc(OC(F)F)cc2)n1 [Example 51, 4-(1-(4-(difluoromethoxy)benzyl)-1H-benzo[d][1,2,3]triazol-5-yl)-N-(1-methyl-1H-pyrazol-5-yl)pyrimidin-2-amine] | < 100 nM | –
Cn1nccc1Nc1nccc(-c2ccc3c(c2)nnn3Cc2cccc(C(F)(F)F)n2)n1 [Example 52, N-(1-methyl-1H-pyrazol-5-yl)-4-(1-((6-(trifluoromethyl)pyridin-2-yl)methyl)-1H-benzo[d][1,2,3]triazol-5-yl)pyrimidin-2-amine] | < 100 nM | –
Cc1ncccc1Cn1nnc2cc(-c3ccnc(Nc4ccnn4C)n3)ccc21 [Example 53, N-(1-methyl-1H-pyrazol-5-yl)-4-(1-((2-methylpyridin-3-yl)methyl)-1H-benzo[d][1,2,3]triazol-5-yl)pyrimidin-2-amine] | < 100 nM | –
COc1ncccc1Cn1nnc2cc(-c3ccnc(Nc4ccnn4C)c3)ccc21 [Example 54, 4-(1-((2-methoxypyridin-3-yl)methyl)-1H-benzo[d][1,2,3]triazol-5-yl)-N-(1-methyl-1H-pyrazol-5-yl)pyridin-2-amine] | < 100 nM | –
Cc1ccc(Cn2nnc3cc(-c4ccnc(Nc5ccnn5C)n4)ccc32)cn1 [Example 57, N-(1-methyl-1H-pyrazol-5-yl)-4-(1-((6-methylpyridin-3-yl)methyl)-1H-benzo[d][1,2,3]triazol-5-yl)pyrimidin-2-amine] | < 100 nM | –
Cn1nccc1Nc1nccc(-c2ccc3c(c2)nnn3C2CCc3cc(Cl)ccc32)n1 (centres unmarked) [Example 59, 4-(1-(5-chloro-2,3-dihydro-1H-inden-1-yl)-1H-benzo[d][1,2,3]triazol-5-yl)-N-(1-methyl-1H-pyrazol-5-yl)pyrimidin-2-amine] | < 100 nM | –
Cn1nccc1Nc1nccc(-c2ccc3c(c2)nnn3CC(C)(C)O)n1 [Example 60, 2-methyl-1-(5-(2-((1-methyl-1H-pyrazol-5-yl)amino)pyrimidin-4-yl)-1H-benzo[d][1,2,3]triazol-1-yl)propan-2-ol] | < 100 nM | –
Cn1nccc1Nc1nccc(-c2ccc3c(c2)nnn3CC2CN(C(=O)OC(C)(C)C)C2)n1 [Example 63, tert-butyl 3-((5-(2-((1-methyl-1H-pyrazol-5-yl)amino)pyrimidin-4-yl)-1H-benzo[d][1,2,3]triazol-1-yl)methyl)azetidine-1-carboxylate] | < 100 nM | –
Cn1nccc1Nc1nccc(-c2ccc3c(c2)nnn3CC2CN(CC(F)(F)F)C2)n1 [Example 64, N-(1-methyl-1H-pyrazol-5-yl)-4-(1-((1-(2,2,2-trifluoroethyl)azetidin-3-yl)methyl)-1H-benzo[d][1,2,3]triazol-5-yl)pyrimidin-2-amine] | < 100 nM | –
COc1ccc(Cn2nnc3cc(-c4ccnc(Nc5ccnn5C)n4)ccc32)cc1 [Example 65, 4-(1-(4-methoxybenzyl)-1H-benzo[d][1,2,3]triazol-5-yl)-N-(1-methyl-1H-pyrazol-5-yl)pyrimidin-2-amine] | < 100 nM | –
Cn1nccc1Nc1nccc(-c2ccc3c(c2)nnn3Cc2cccnc2Cl)n1 [Example 66, 4-(1-((2-chloropyridin-3-yl)methyl)-1H-benzo[d][1,2,3]triazol-5-yl)-N-(1-methyl-1H-pyrazol-5-yl)pyrimidin-2-amine] | < 100 nM | –
COc1ncccc1Cn1nnc2cc(-c3ccnc(Nc4ccnn4C)n3)ccc21 [Example 67, 4-(1-((2-methoxypyridin-3-yl)methyl)-1H-benzo[d][1,2,3]triazol-5-yl)-N-(1-methyl-1H-pyrazol-5-yl)pyrimidin-2-amine] | < 100 nM | –
COc1cccnc1Cn1nnc2cc(-c3ccnc(Nc4ccnn4C)n3)ccc21 [Example 68, 4-(1-((3-methoxypyridin-2-yl)methyl)-1H-benzo[d][1,2,3]triazol-5-yl)-N-(1-methyl-1H-pyrazol-5-yl)pyrimidin-2-amine] | < 100 nM | –
Cn1nccc1Nc1nccc(-c2ccc3c(c2)nnn3Cc2ncc(F)cc2F)n1 [Example 69, 4-(1-((3,5-difluoropyridin-2-yl)methyl)-1H-benzo[d][1,2,3]triazol-5-yl)-N-(1-methyl-1H-pyrazol-5-yl)pyrimidin-2-amine] | < 100 nM | –
COc1ccc([C@@H](c2cnnn2C)n2nnc3cc(-c4ccnc(Nc5ccnn5C)n4)ccc32)cc1F [Example 71, (S)-4-(l-((3-fluoro-4-methoxyphenyl)(1-methyl-1H-1,2,3-triazol-5-yl)methyl)-1H-benzo[d][1,2,3]triazol-5-yl)-N-(1-methyl-1H-pyrazol-5-yl)pyrimidin-2-amine] | < 100 nM | –
CN1CC(n2nnc3cc(-c4ccnc(Nc5cnn(C)c5)n4)ccc32)[C@H](c2ccc(F)cc2F)C1 (stereo partly drawn) [Example 73, 4-(1-((3S,4R)-4-(2,4-difluorophenyl)-1-methylpyrrolidin-3-yl)-1H-benzo[d][1,2,3]triazol-5-yl)-N(1-methyl-1H-pyrazol-4-yl)pyrimidin-2-amine] | < 100 nM | –
CN1C[C@@H](n2nnc3cc(-c4ccnc(Nc5ccnn5C)n4)ccc32)[C@H](c2ccc(F)cc2F)C1 [Example 74, 4-(1-((3S,4R)-4-(2,4-difluorophenyl)-1-methylpyrrolidin-3-yl)-1H-benzo[d][1,2,3]triazol-5-yl)-N-(1-methyl-1H-pyrazol-5-yl)pyrimidin-2-amine] | < 100 nM | –
